Test results published in patent US20050112123A1, “Methods of treating proteinuria” (priority 2003, published 2005).

Key:
[1] = tested on: Tg-26 HIV transgenic heterozygous mice; experiment: Tg-26 HIV transgenic mice (HIV-associated nephropathy) in vivo
podocytes = experiment: Hoecht's Assay of apoptosis for dose selection; assay type: cell-based, mouse; settings: 25 mM ATRA
Experimental: The dose of 25 mMol/ml ATRA was selected after exposing cells to varying mMol doses of ATRA (10, 25, 50, 75, 100) and then measuring apoptosis with the Hoecht's Assay according to the manufacturer's directions. Apoptosis was not increased at 25 mM.

normal mice = experiment: Pilot study of adverse side effects in normal mice; assay type: in vivo, mouse; settings: 16 mg/kg i.p. for 7 days
Experimental: Pilot studies were performed to determine if giving ATRA 16 mg/kg i.p. for 7 days caused adverse side effects in normal mice. […] To determine the effect of ATRA on podocytes in vivo, mice with experimental glomerular disease were given ATRA intraperitoneally (i.p.) on two consecutive days. […] Renal function was assessed by measuring proteinuria and BUN.

[2] = ATRA treated Tg mice (5 animals)

CC1=C(/C=C/C(C)=C/C=C/C(C)=C/C(=O)O)C(C)(C)CCC1 [ATRA, all-trans retinoic acid]
collapsed glomeruli [1, 2]: no collapsed glomeruli
glomeruli with 0-25% sclerosis [1, 2]: 4.8%
glomeruli with 25-50 sclerosis [1, 2]: 1.2%
glomeruli with 50-75% or 75-100% sclerosis [1, 2]: No glomeruli were seen
glomeruli with no sclerosis ([1]; ATRA treated Tg mice (5 animals), 50 glomeruli per tissue sample): 94%
segmental sclerosis vs carrier treated transgenic animals ([1]; Tg mice, 4 months of life): reduced the sclerosis by a statistically significant amount
serum BUN ([1]; the different groups): no significant difference
proteinuria vs carrier treated transgenic animals (Tg C) ([1]; transgenic mice, ATRA 16 mg/kg intraperitoneal three times a week): tended to have less proteinuria
significance of difference in proteinuria vs carrier treated animals ([1]; transgenic mice, all other time points): not significant
significance of difference in proteinuria vs carrier treated animals ([1]; transgenic mice, at 80 days): statistically significant
interstitial disease score (tubular dilatation) ([1]; two ATRA treated Tg animals): no tubular dilatation
apoptosis (Hoecht's Assay) (podocytes): not increased
adverse side effects (normal mice): no weight loss, ruffled fur, withdrawal or diarrhea
